Data taken from EP0326329B1, “Quinazoline derivatives useful as insecticides” (Dow AgroSciences LLC, priority 1988, dated 1989).

What was measured:
Type in all cases: in vivo
[1] = tested on: southern armyworm (Spodopetra eridania Cramer); assay: Mite/insect screen, sprayed squash leaves (SAW); details: Spodoptera eridania, percent mortality, read-out: SAW RESULTS %; for mortality at 200 ppm: spray rate 200 ppm; for mortality at 400 ppm: spray rate 400 ppm
In short: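 Steps: formulate compound in acetone/alcohol 50:50 carrying emulsifiers; dilute with water; spray leaves until runoff on upper and lower surfaces; air-dry one hour; for armyworm, excise two […] leaves into a dish of larvae; after exposure, score mortality and plant injury.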

[2] = tested on: Botrytis cinerea (gray mold); assay: Greenhouse Test 1, foliar spray fungicide screen (GRAY MOLD), host grape berries; details: disease control rating, 400 ppm (+++ at 100 ppm)
[3] = tested on: Cercospora beticola (leaf spot); assay: Greenhouse Test 1, foliar spray fungicide screen (LEAF SPOT), host sugar beet; details: disease control rating, 400 ppm (+++ at 100 ppm)
[4] = tested on: Erysiphe graminis tritici (powdery mildew); assay: Greenhouse Test 1, foliar spray fungicide screen (POWD MDEW), host wheat; details: disease control rating, 400 ppm (+++ at 100 ppm)
black citrus aphid = assay: Mite and insect field trials; details: plant: lemon
Description: (§1) 4-[2-[4-(t-butyl)phenyl]ethoxy]quinazoline and 4-[2-(1,1'-biphenyl)-4 biphenyl)-4-ylethoxy]quinazoline were evaluated against a variety of mite and insect species in field trials.

glasshouse whitefly = assay: Mite and insect field trials; details: tested on tomato
Description: as §1

grape thrips = assay: Mite and insect field trials; details: plant: grape (European)
Description: as §1

greenhouse thrips = assay: Mite and insect field trials; details: plant: azaleas
Description: as §1

apple aphid = assay: Mite and insect field trials; details: plant: apples
Description: as §1

potato aphid = assay: Mite and insect field trials; details: plant: turnip
Description: as §1

cotton aphid = assay: Mite and insect field trials; details: plant: cotton
Description: as §1

bean aphid = assay: Mite and insect field trials; details: plant: bean, faba broad
Description: as §1

twospotted spider mite = assay: Mite and insect field trials
Description: as §1

thrips = assay: Mite and insect field trials; details: plant: privet
Description: as §1

pea aphid = assay: Mite and insect field trials
Description: as §1

grape leafhopper = assay: Mite and insect field trials; details: plant: grape (European)
Description: as §1

wheat aphid = assay: Mite and insect field trials; details: plant: wheat
Description: as §1

potato leafhopper = assay: Mite and insect field trials; details: plant: alfalfa (Lucerne)
Description: as §1

yellow hickory aphid = assay: Mite and insect field trials; details: plant: pecan nut
Description: as §1

tarnished plant bug = assay: Mite and insect field trials; details: plant: alfalfa (Lucerne)
Description: as §1

green cloverworm = assay: Mite and insect field trials; details: plant: alfalfa (Lucerne)
Description: as §1

green peach aphid = assay: Mite and insect field trials
Description: as §1

rosy apple aphid = assay: Mite and insect field trials; details: plant: apples
Description: as §1

Dawson-hop aphid = assay: Mite and insect field trials; details: plant: hops
Description: as §1

apple rust mite = assay: Mite and insect field trials; details: plant: apples
Description: as §1

white apple leafhopper = assay: Mite and insect field trials; details: plant: apples
Description: as §1

cereal aphid = assay: Mite and insect field trials; details: plant: barley
Description: as §1

European red mite = assay: Mite and insect field trials; details: plant: apples
Description: as §1

[5] = tested on: melon aphids (Aphis gossypii Glover); assay: Mite/insect screen, sprayed squash cotyledons (MA); details: Aphis gossypii, percent mortality, read-out: MA RESULTS %; for mortality at 200 ppm: spray rate 200 ppm; for mortality at 400 ppm: spray rate 400 ppm
In short: (§2)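 Compounds dissolved in acetone/alcohol with TOXIMUL R/S emulsifiers, diluted with water to test concentrations, and sprayed to runoff on both leaf surfaces at 10 psi, then dried 1 h. Excised treated squash leaves given southern armyworm larvae; aphid and spider mite tests on sprayed squash cotyledons. Percent mortality and phytotoxicity scored after standard exposure.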

[6] = tested on: Venturia inaequalis (apple scab); assay: Greenhouse Test 1, foliar spray fungicide screen (APPL SCAB), host apple seedling; details: disease control rating, 400 ppm (+++ at 100 ppm)
[7] = tested on: Southern corn rootworm (Diabrotica undecimpuctata howardi Barber); assay: Mite/insect screen, soil treatment (CRW); details: Diabrotica, percent mortality, soil treatment, read-out: CRW RESULTS %; for mortality at 12 ppm: CRW rate 12.00 ppm; for mortality at 24 ppm: CRW rate 24.00 ppm
In short: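 Five 2–3 instar larvae were placed on dry sandy soil with a presoaked corn seed after the soil had received 1 mL of compound solution and dried 6–12 h; cups were kept capped at 23°C. Mortality (%) and phytotoxicity were read after standard exposure. Formulation: acetone/alcohol with emulsifiers, water-diluted.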

[8] = tested on: Pyricularia oryzae (rice blast); details: disease control rating, foliar spray, host rice; 400 ppm (+++ at 100 ppm)
[9] = tested on: Pseudoperonospora cubensis (downy mildew); assay: Greenhouse Test 1, foliar spray fungicide screen (DOWN MDEW), host squash; details: disease control rating, 400 ppm (+++ at 100 ppm)
[10] = tested on: Septoria tritici (leaf blotch); assay: Greenhouse Test 1, foliar spray fungicide screen (LEAF BLOT), host wheat; details: disease control rating, 400 ppm (+++ at 100 ppm)
[11] = tested on: Puccinia recondita tritici (leaf rust); assay: Greenhouse Test 1, foliar spray fungicide screen (LEAF RUST), host wheat; details: disease control rating, 400 ppm (+++ at 100 ppm)
[12] = tested on: Twospotted spider mites (Tetranychus urticae Koch); assay: Mite/insect screen, sprayed squash cotyledons (SM); details: Tetranychus urticae, percent mortality, read-out: SM RESULTS %; for mortality at 200 ppm: spray rate 200 ppm; for mortality at 400 ppm: spray rate 400 ppm
In short: as §2

c1ccc(-c2ccc(CCOc3ncnc4ccccc34)cc2)cc1 [Example 85, 4-[2-(1,1'-biphenyl)-4-ylethoxy]quinazoline]
mortality at 200 ppm [1]: 10% | mortality at 400 ppm [1]: 80% | GRAY MOLD [2]: - (- = 0-19% control at 400 ppm) | LEAF SPOT [3]: - (- = 0-19% control at 400 ppm) | POWD MDEW [4]: ++ (++ = 90-100% control at 400 ppm) | mite or insect species against which they showed activity in field trials (black citrus aphid): black citrus aphid | activity against glasshouse whitefly in field trials (glasshouse whitefly): showing activity | mite or insect species against which they showed activity in field trials (grape thrips): grape thrips | mite or insect species against which they showed activity in field trials (greenhouse thrips): greenhouse thrips | mite or insect species against which they showed activity in field trials (apple aphid): apple aphid | mite or insect species against which they showed activity in field trials (potato aphid): potato aphid | mite or insect species against which they showed activity in field trials (cotton aphid): cotton aphid | mite or insect species against which they showed activity in field trials (bean aphid): bean aphid | mite or insect species against which they showed activity in field trials (twospotted spider mite; plant: azaleas): twospotted spider mite | mite or insect species against which they showed activity in field trials (twospotted spider mite; plant: broccoli): twospotted spider mite | mite or insect species against which they showed activity in field trials (twospotted spider mite; plant: plum (Japanese)): twospotted spider mite | mite or insect species against which they showed activity in field trials (thrips): thrips | mite or insect species against which they showed activity in field trials (pea aphid; plant: alfalfa (Lucerne)): pea aphid | mite or insect species against which they showed activity in field trials (pea aphid; plant: pea, garden (English)): pea aphid | mite or insect species against which they showed activity in field trials (grape leafhopper): grape leafhopper | mite or insect species against which they showed activity in field trials (wheat aphid): wheat aphid | mite or insect species against which they showed activity in field trials (potato leafhopper): potato leafhopper | mite or insect species against which they showed activity in field trials (yellow hickory aphid): yellow hickory aphid | mite or insect species against which they showed activity in field trials (tarnished plant bug): tarnished plant bug | mite or insect species against which they showed activity in field trials (green cloverworm): green cloverworm | mite or insect species against which they showed activity in field trials (green peach aphid; plant: apples): green peach aphid | mite or insect species against which they showed activity in field trials (green peach aphid; plant: sugar beet): green peach aphid | mite or insect species against which they showed activity in field trials (rosy apple aphid): rosy apple aphid | mite or insect species against which they showed activity in field trials (Dawson-hop aphid): Dawson-hop aphid | mite or insect species against which they showed activity in field trials (apple rust mite): apple rust mite | mite or insect species against which they showed activity in field trials (white apple leafhopper): white apple leafhopper | mite or insect species against which they showed activity in field trials (cereal aphid): cereal aphid | mite or insect species against which they showed activity in field trials (European red mite): European red mite | mortality at 200 ppm [5]: 100% | mortality at 400 ppm [5]: 100% | APPL SCAB [6]: - (- = 0-19% control at 400 ppm) | mortality at 12 ppm [7]: 0% | mortality at 24 ppm [7]: 0% | RICE BLAST [8]: + (+ = 20-89% control at 400 ppm) | DOWN MDEW [9]: +++ (+++ = 90-100% control at 100 ppm) | LEAF BLOT [10]: +++ (+++ = 90-100% control at 100 ppm) | LEAF RUST [11]: +++ (+++ = 90-100% control at 100 ppm) | mortality at 200 ppm [12]: 100% | mortality at 400 ppm [12]: 100%

CC(Cc1ccccc1)Nc1nc(NC(C)Cc2ccccc2)c2ccccc2n1 (stereo not drawn) [Example 26, N,N'-bis(1-methyl-2-phenylethyl)-2,4-quinazolinediamine]
mortality at 200 ppm [1]: 0% | GRAY MOLD [2]: - (- = 0-19% control at 400 ppm) | LEAF SPOT [3]: + (+ = 20-89% control at 400 ppm) | POWD MDEW [4]: - (- = 0-19% control at 400 ppm) | mortality at 200 ppm [5]: 0% | APPL SCAB [6]: - (- = 0-19% control at 400 ppm) | mortality at 12 ppm [7]: 0% | RICE BLAST [8]: ++ (++ = 90-100% control at 400 ppm) | DOWN MDEW [9]: +++ (+++ = 90-100% control at 100 ppm) | LEAF BLOT [10]: + (+ = 20-89% control at 400 ppm) | LEAF RUST [11]: ++ (++ = 90-100% control at 400 ppm) | mortality at 200 ppm [12]: 0%

Fc1ccc(CCOc2ncnc3ccccc23)cc1 [Example 84, 4-[2-(4-fluorophenyl)ethoxy]quinazoline]
mortality at 200 ppm [1]: 0% | mortality at 400 ppm [1]: 0% | GRAY MOLD [2]: - (- = 0-19% control at 400 ppm) | LEAF SPOT [3]: - (- = 0-19% control at 400 ppm) | POWD MDEW [4]: ++ (++ = 90-100% control at 400 ppm) | mortality at 200 ppm [5]: 0% | mortality at 400 ppm [5]: 0% | APPL SCAB [6]: ++ (++ = 90-100% control at 400 ppm) | mortality at 12 ppm [7]: 0% | mortality at 24 ppm [7]: 40% | RICE BLAST [8]: ++ (++ = 90-100% control at 400 ppm) | DOWN MDEW [9]: ++ (++ = 90-100% control at 400 ppm) | LEAF BLOT [10]: + (+ = 20-89% control at 400 ppm) | LEAF RUST [11]: +++ (+++ = 90-100% control at 100 ppm) | mortality at 200 ppm [12]: 0% | mortality at 400 ppm [12]: 0%

c1ccc(CCCc2ncnc3ccccc23)cc1 [Example 29, 4-(3-phenylpropyl)quinazoline]
mortality at 400 ppm [1]: 0% | GRAY MOLD [2]: - (- = 0-19% control at 400 ppm) | LEAF SPOT [3]: - (- = 0-19% control at 400 ppm) | POWD MDEW [4]: + (+ = 20-89% control at 400 ppm) | mortality at 400 ppm [5]: 80% | APPL SCAB [6]: + (+ = 20-89% control at 400 ppm) | mortality at 24 ppm [7]: 0% | RICE BLAST [8]: +++ (+++ = 90-100% control at 100 ppm) | DOWN MDEW [9]: ++ (++ = 90-100% control at 400 ppm) | LEAF BLOT [10]: - (- = 0-19% control at 400 ppm) | LEAF RUST [11]: ++ (++ = 90-100% control at 400 ppm) | mortality at 400 ppm [12]: 80%
